test system: cell attachment-promoting effects of fibronectin and vitronectin; experiment: not given; conditions: background section; cited from earlier work

| Compound | activity of the tripeptide |
| --- | --- |
| arginine-glycine-aspartic acid [Arg-Gly-Asp] | low activity |

test system: gp IIb/IIIa complex; experiment: not given; conditions: literature, background section; cited from earlier work

| Compound | affinity for the gp IIb/IIIa complex |
| --- | --- |
| Echistatin | high affinity |

test system: gel-filtered human platelets; experiment: ADP-stimulated platelet aggregation (gel-filtered human platelets, fibrinogen, Ca2+); assay type: cell-based; conditions: gel-filtered human platelets 2×10^8 per ml, fibrinogen 100 ug/ml, Ca2+ 1 mM, 10 mM ADP, 37° C., read-out: IC50 (inhibition of platelet aggregation by 50% relative to a control lacking the compound)
Description: Platelet aggregation is measured at 37° C. in a Chronolog aggregometer. The reaction mixture contains gel-filtered human platelets (2×10^8 per ml), fibrinogen (100 micrograms per ml (ug/ml)), Ca^2+ (1 mM), and the compound to be tested. The aggregation is initiated by adding […] ADP 1 minute after the other components are added. The reaction is then allowed to proceed for at least 2 minutes. The extent of inhibition of aggregation is expressed as the percentage of the rate of aggregation observed in the absence of inhibitor. The IC50 is the dose of a particular compound inhibiting aggregation by 50% relative to a control lacking the compound.
In addition to the following preparative procedures, several examples of in-vitro bioactivity of compounds within the scope of the present invention are indicated. To illustrate, one test which is used to evaluate fibrinogen receptor antagonist activity is based on evaluation of inhibition of ADP-stimulated platelets. Aggregation requires that fibrinogen bind to and occupy the platelet fibrinogen receptor site. Inhibitors of fibrinogen binding inhibit aggregation. In the ADP-stimulated platelet aggregation assay used to determine inhibition associated with the compounds claimed in the instant invention, human platelets are isolated from fresh blood, collected into acid citrate/dextrose by differential centrifugation followed by gel filtration on Sepharose 2B in divalent ion-free Tyrode's buffer (pH 7.4) containing 2% bovine serum albumin.

| IC50 [nM] | Compound |
| --- | --- |
| 5000 | O=C(O)CCNC(=O)c1cc2c(s1)C(=O)N(CCC1CCNCC1)C2=O [1-6, 5-(2-Carboxyethyl)carboxamide-[N-2-(4-Piperidinyl)ethyl]-2,3-thiophenedicarboximide] |
| 8 | CCCCS(=O)(=O)N[C@@H](CNC(=O)c1cc2c(s1)CCN(CCC1CCNCC1)C2=O)C(=O)O [2-9, 2-[3-(2(S)-n-butylsulfonylamino)propionic acid]carboxamide-4-oxo-5-[2-(4-piperidinyl)ethyl]-4,5,6,7-tetrahydro[3,2-c]pyridine] |
| 33000 | CCCCS(=O)(=O)N[C@@H](CNC(=O)c1csc2c1C(=O)N(CCC1CCNCC1)CC2)C(=O)O [2-11, 3-[3-(2(S)-n-Butylsulfonylamino)propionic acid]carboxamide-4-oxo-5-[2-(4-piperidinyl)ethyl]-4,5,6,7-tetrahydro[3,2-c]pyridine] |
| 8 | O=C(NC[C@H](NS(=O)(=O)c1ccccc1)C(=O)O)c1cc2c(s1)CCN(CCC1CCNCC1)C2=O [2-14, 2-[3-(2(S)-Phenylsulfonylamino)propionic acid]carboxamide-4-oxo-5-[2-(4-piperidinyl)ethyl]-4,5,6,7-tetrahydro[3,2-c]pyridine] |
| 25 | O=C(NCc1ccccc1)N[C@@H](CNC(=O)c1cc2c(s1)CCN(CCC1CCNCC1)C2=O)C(=O)O [2-17, 2-[3-(2(S)-benzylureido)propionic acid]carboxamide-4-oxo-5-[2-(4-piperidinyl)ethyl]-4,5,6,7-tetrahydro[3,2-c]pyridine] |
| 220 | C[C@H](CC(=O)O)NC(=O)c1cc2c(s1)CCN(CCC1CCNCC1)C2=O [2-21, 2-[3-(3(R)-Methyl)propionic acid]carboxamide-4-oxo-5-[2-(4-piperidinyl)ethyl]-4,5,6,7-tetrahydrothieno[3,2-c]pyridine] |
| 150 | O=C(O)CCNC(=O)c1cc2c(s1)CCN(CCC1CCNCC1)C2=O [3-3, 2-[3-(Propionic acid)]carboxamide-4-oxo-5-[2-(piperidinyl)]ethyl-4,5,6,7-tetrahydrothieno[3,2-c]pyridine] |
| 260 | O=C(O)CCCC(=O)c1cc2c(s1)CCN(CCC1CCNCC1)C2=O [4-3] |

— patent US5334596A, “Fibrinogen receptor antagonists” (Merck & Co., Inc., priority 1993, dated 1994)
